Values of other authors in patent publication US20050272698A1, “Liquid stable composition of oxazaphosphorine with mesna” (priority 2002, published 2005).

Compound | solubility in water
O=S(=O)([O-])CCS.[Na+] [Mesna, sodium-2-mercaptoethanesulphonate] | highly water soluble
O=P1(NCCCl)OCCCN1CCCl (centres unmarked) [Ifosfamide, 3-(2-chloroethyl)-2-[(2-chloroethyl)amino]tetrahydro-2H-1,3,2-oxazaphosphorin-2-oxide] | freely soluble in water
